“Also recorded” adds a separate entry of the source.
How the values were obtained:
[1] = test system: C57BL/6 mice with oxygen-induced ischemic retinopathy; assay: Oxygen-induced ischemic retinopathy, area of retinal NV; format: in vivo, mouse (C57BL/6); conditions: five days after administration (P17), vs vehicle
Procedure: At P17, the area of retinal NV on the surface of the retina was measured. […] Retinas were dissected, washed, and incubated with goat-anti rat polyclonal antibody conjugated with Alexa 488 (Invitrogen, Carlsbad, Calif.) at 1:500 dilution at room temperature for 45 minutes and flat mounted. An observer masked with respect to treatment group measured the area of NV per retina by image analysis.

[2] = test system: mice with laser-induced choroidal NV; assay: Laser-induced choroidal NV (CNV) mouse model; format: in vivo, mouse (C57BL/6); conditions: 14 days, vs vehicle-injected fellow eyes
Procedure: Pathogen-free C57BL/6 mice (Charles River, Wilmington, Mass.) were treated in accordance with the Association for Research in Vision and Ophthalmology Statement for the Use of Animals in Ophthalmic and Vision Research and the guidelines of the Johns Hopkins University Animal Care and Use Committee.
Choroidal NV was induced by laser photocoagulation-induced rupture of Bruch's membrane as previously described (Tobe, T. et al., Am. J. Pathol. 135(5): 1641-1646(1998)). […] Laser photocoagulation (75 μm spot size, 0.1 sec duration, 120 mW) was performed in the 9, 12, and 3 o'clock positions of the posterior pole of each eye with the slit lamp delivery system of an OcuLight GL diode laser (Iridex, Mountain View, Calif.) and a handheld cover slip as a contact lens to view the retina. Production of a bubble at the time of laser, which indicates rupture of Bruch's membrane, is an important factor in obtaining CNV; therefore, only burns in which a bubble was produced were included in the study.
Immediately after laser-induced rupture of Bruch's membrane, mice were randomized to various treatment groups for intraocular injections. Intravitreal injections were done under a dissecting microscope with a Harvard Pump Microinjection System and pulled glass micropipettes.
At 1, 4, 7, and 14 days after injection, fundus photographs were taken with a Micron III® camera (Phoenix Research Laboratories Inc., Pleasanton, Calif.). After 14 days, the mice were perfused with 1 ml of PBS containing 25 mg/ml of fluorescein-labeled dextran (2×10^6 Daltons average molecular weight; Sigma-Aldrich, St. Louis, Mo.) and choroidal flat mounts were examined by fluorescence microscopy. Images were captured with a Nikon Digital Still Camera DXM1200 (Nikon Instruments Inc., New York, N.Y.). Image analysis software (Image-Pro® Plus; Media Cybernetics, Silver Spring, Md.) was used to measure the total area of CNV at each rupture site with the investigator masked with respect to treatment group.

Adult C57BL/6 mice [3] = assay: Electroretinograms (ERGs), retinal function after intraocular injection
Procedure: For scotopic recordings, mice were dark adapted overnight, and for photopic recordings, mice were adapted for 10 min to background white light at an intensity of 30 cd/m^2. The mice were anesthetized with an intraperitoneal injection of ketamine hydrochloride (100 mg/kg body weight) and xylazine (5 mg/kg body weight). Pupils were dilated with Midrin P containing of 0.5% tropicamide and 0.5% phenylephrine, hydrochloride (Santen Pharmaceutical Co., Osaka, Japan). The mice were placed on a pad heated to 39° C. and platinum loop electrodes were placed on each cornea after application of Gonioscopic prism solution (Alcon Labs, Fort Worth, Tex.). A reference electrode was placed subcutaneously in the anterior scalp between the eyes and a ground electrode was inserted into the tail. The head of the mouse was held in a standardized position in a ganzfeld bowl illuminator that ensured equal illumination of the eyes. Recordings for both eyes were made simultaneously with electrical impedance balanced. Scotopic ERGs were recorded at 11 intensity levels of white light ranging from −3.00 to 1.40 log cd-s/m2. Six measurements were averaged for each flash intensity. Photopic ERGs were recorded at three intensity levels of white light ranging from 0.60 to 1.40 log cd-s/m2 with a 30 cd/m2 background. Five measurements were averaged for each flash intensity.

[4] = test system: HIF-1 transcriptional activity and ocular NV; conditions: intraocular injections of 0.01-0.25 μg; cited from earlier work
Adult C57BL/6 mice [5] = assay: Outer nuclear layer (ONL) thickness; format: in vivo, mouse (C57BL/6); conditions: 0.25 μg intraocular; one week after injection
Procedure: ONL thickness was measured. […] Mice were euthanized, a mark was placed at 12:00 at the corneal limbus, and eyes were removed and embedded in optimal cutting temperature compound. Ten micrometer frozen sections were cut parallel to the 12:00 or 9:00 meridian through the optic nerve and fixed in 4% paraformaldehyde. The sections were stained with hematoxylin and eosin, examined with an Axioskop microscope (Zeiss, Thornwood, N.Y.), and images were digitized using a three charge-coupled device (CCD) color video camera (IK-TU40A; Toshiba, Tokyo, Japan) and a frame grabber. Image-Pro Plus software (Media Cybernetics, Silver Spring, Md.) was used to outline the ONL.

[6] = 0.1 μg intraocular after rupture of Bruch's membrane
[7] = 1.0 μg intraocular after rupture of Bruch's membrane
[8] = 10 μg intraocular after rupture of Bruch's membrane
[9] = 1 μg intraocular, fourteen days after injection

For `COc1cccc2c1C(=O)c1c(O)c3c(c(O)c1C2=O)C[C@@](O)(C(C)=O)C[C@@H]3O[C@H]1C[C@H](N)[C@H](O)[C@H](C)O1` [DNR, daunorubicin], the “area of RNV” value ([1]; 0.01 μg intraocular at P12) was “had no significant effect; also recorded: did not show a statistically significant reduction in the area of RNV”, the “area of RNV” value ([1]; 0.1 μg intraocular at P12) was “caused a small reduction; also recorded: statistically significant reduction in the area of RNV” and the “area of RNV” value ([1]; 1.0 μg intraocular at P12) was “markedly reduced the area of retinal NV; also recorded: statistically significant reduction in the area of RNV”. For the same compound, the “area of CNV” value [2, 6] was “had no significant effect; also recorded: did not show a statistically significant reduction in the area of CNV”, the “area of CNV” value [2, 7] was “had no significant effect; also recorded: did not show a statistically significant reduction in the area of CNV” and the “area of CNV” value [2, 8] was “suppressed choroidal NV; also recorded: statistically significant reduction in the area of CNV”. The “mean scotopic and photopic b-wave amplitudes” value (Adult C57BL/6 mice [3]; [9]) was “significant reduction in mean scotopic and photopic b-wave amplitudes”.

For `COc1cccc2c1C(=O)c1c(O)c3c(c(O)c1C2=O)C[C@@](O)(C(=O)CO)C[C@@H]3O[C@H]1C[C@H](N)[C@H](O)[C@H](C)O1` [DXR, doxorubicin], the “area of RNV” value ([1]; 0.01 μg intraocular at P12) was “but not 0.1 or 0.01 μg, significantly reduced the area of retinal NV; also recorded: did not show a statistically significant reduction in the area of RNV”, the “area of RNV” value ([1]; 0.1 μg intraocular at P12) was “but not 0.1 or 0.01 μg, significantly reduced the area of retinal NV; also recorded: did not show a statistically significant reduction in the area of RNV” and the “area of RNV” value ([1]; 1.0 μg intraocular at P12) was “significantly reduced the area of retinal NV; also recorded: statistically significant reduction in the area of RNV”. The “area of CNV” value [2, 6] was “did not have a significant effect; also recorded: did not show a statistically significant reduction in the area of CNV”, the “area of CNV” value [2, 7] was “did not have a significant effect; also recorded: did not show a statistically significant reduction in the area of CNV” and the “area of CNV” value [2, 8] was “suppressed choroidal NV; also recorded: statistically significant reduction in the area of CNV”. For the same compound, the “mean scotopic and photopic b-wave amplitudes” value (Adult C57BL/6 mice [3]; [9]) was “significant reduction in mean scotopic and photopic b-wave amplitudes”.

For `C[C@H]1O[C@@H](O[C@H]2[C@@H](O)C[C@H](O[C@H]3[C@@H](O)C[C@H](O[C@H]4CC[C@@]5(C)[C@H](CC[C@@H]6[C@@H]5C[C@@H](O)[C@]5(C)[C@@H](C7=CC(=O)OC7)CC[C@]65O)C4)O[C@@H]3C)O[C@@H]2C)C[C@H](O)[C@@H]1O` [digoxin], the “HIF-1 transcriptional activity and ocular NV” value [4] is listed as “suppress HIF-1 transcriptional activity and ocular NV”, the “mean scotopic and photopic b-wave amplitudes” value (Adult C57BL/6 mice [3]; 0.05 μg intraocular) is listed as “significant reduction in mean scotopic and photopic b-wave amplitudes” and the “ERG amplitudes (scotopic a-wave, scotopic b-wave, photopic b-wave)” value (Adult C57BL/6 mice [3]; 0.25 μg intraocular, one week after injection) is listed as “significant reduction in mean scotopic a-wave amplitude, mean scotopic b-wave amplitude, and mean photopic b-wave amplitude”. The “outer nuclear layer thickness” value (Adult C57BL/6 mice [5]) was “reduction in outer nuclear layer thickness at 3 of 6 measurement locations”.

Source: US11660349B2, “Non-linear multiblock copolymer-drug conjugates for the delivery of active agents” (priority 2012, dated 2023)
